Laboratory results published in patent publication US7199136B2, “1,4-dihydro-1,4-diphenylpyridine derivatives” (Bayer HealthCare AG, priority 2001, dated 2007).

Experiments:
[1] = target: T1, human neutrophil elastase (HNE) (Homo sapiens, UniProt P08246); test: In vitro inhibition of HNE using a fluorogenic peptide substrate (MeOSuc-Ala-Ala-Pro-Val-AMC), 384 MTP format; type: biochemical; details: 37° C.
T1 construct: purchased SERVA Electrophoresis GmbH, Heidelberg, Germany #20927.01
T1 sequence (P08246 30-267): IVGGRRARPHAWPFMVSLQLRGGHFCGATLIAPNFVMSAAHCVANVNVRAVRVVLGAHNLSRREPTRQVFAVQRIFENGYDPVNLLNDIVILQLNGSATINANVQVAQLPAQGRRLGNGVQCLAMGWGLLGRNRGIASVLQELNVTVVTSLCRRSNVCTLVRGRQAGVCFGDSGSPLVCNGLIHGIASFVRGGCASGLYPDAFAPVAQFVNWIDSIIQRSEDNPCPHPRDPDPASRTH
Method: I. In Vitro Assays of Human Neutrophil Elastase (HNE)
The test solution is prepared by mixing 10 μl of test compound dilution, 20 μl of HNE enzyme dilution (final concentration 8–0.4 μU/ml, routinely 2.1 μU/ml) and 20 μl of substrate dilution (final concentration 1 mM–1 μM, routinely 20 μM), respectively. The solution is incubated for 0–2 hrs at 37° C. (routinely one hour). The fluorescence of the liberated AMC due to the enzymatic reaction is measured at 37° C. (TECAN spectra fluor plus plate reader). […] IC50 values are determined by RFU-versus-[I] plots. Km and Km(app.) values are determined by Lineweaver-Burk plots and converted to Ki values by Dixon plots.

[2] = tested on: human polymorphonuclear cells (PMNs); test: In vitro PMN elastolysis assay (tritiated elastin); type: cell-based
Method: II. In Vitro PMN Elastolysis Assay
This assay is used to determine the elastolytic potential of human polymorphonuclear cells (PMNs) and assess the proportion of degradation due to neutrophil elastase [cf. Z. W. She et al., Am. J. Respir. Cell. Mol. Biol. 9, 386–392 (1993)].
Tritiated elastin, in suspension, is coated on to a 96 well plate at 10 μg per well. Test and reference [ZD-0892 (J. Med. Chem. 40, 1876–1885, 3173–3181 (1997), WO 95/21855) and α1 protease inhibitor (α1PI)] compounds are added to the wells at the appropriate concentrations. Human PMNs are separated from peripheral venous blood of healthy donors and resuspended in culture media. […] Porcine pancreatic elastase (1.3 μM is used as a positive control for the assay, and α1PI (1.2 μM) is used as the positive inhibitor of neutrophil elastase. The cellular control is PMNs without compound at each appropriate cell density. The cells plus compounds are incubated in a humidified incubator at 37° C. for 4 hours. The plates are centrifuged to allow the harvest of cell supernatant only. The supernatant is transferred in 75 μl volumes to corresponding wells of a 96 well Lumaplate™ (solid scintillant containing plates). The plates are dried until no liquid is visible in the wells and read in a beta counter for 3 minutes per well. […]

IC50 [1] [nM] | Molecule | also measured
230 | CCOC(=O)C1=C(C)N(c2cccc(C(F)(F)F)c2)C(C)=C(C(C)=O)C1c1ccc(C#N)cc1 (racemic) [Example 10, (±)-Ethyl 5-acetyl-4-(4-cyanophenyl)-2,6-dimethyl-1-[3-(trifluoromethyl)phenyl]-1,4-dihydro-3-pyridinecarboxylate] | –
30 | CC(=O)C1=C(C)N(c2cccc(C(F)(F)F)c2)C(N)=C(C(N)=O)C1c1ccc(C#N)cc1 (stereo not shown) [Example 13, 5-Acetyl-2-amino-4-(4-cyanophenyl)-6-methyl-1-[3-(trifluoromethyl)phenyl]-1,4-dihydro-3-pyridinecarboxamide] | –
120 | CC(=O)C1=C(C)N(c2cccc(C(F)(F)F)c2)C(N)=C(C#N)C1c1ccc(C#N)cc1 (stereo not shown) [Example 15, 5-Acetyl-2-amino-4-(4-cyanophenyl)-6-methyl-1-[3-(trifluoromethyl)phenyl]-1,4-dihydro-3-pyridinecarbonitrile] | –

Continued, molecule first:

Molecule | IC50 [1] [nM] | also measured
CCOC(=O)C1=CN(c2cccc(C(F)(F)F)c2)C(C)=C(C(C)=O)C1c1ccc(C#N)cc1 (racemic) [Example 8, (±)-Ethyl 5-acetyl-4-(4-cyanophenyl)-6-methyl-1-[3-(trifluoromethyl)phenyl]-1,4-dihydro-3-pyridinecarboxylate] | 330 | –
CCOC(=O)C1=C(N)N(c2cccc(C)c2)C(C)=C(C(C)=O)C1c1ccc(C#N)cc1 (stereo not shown) [Example 12, Ethyl 5-acetyl-2-amino-4-(4-cyanophenyl)-6-methyl-1-[3-methylphenyl]-1,4-di-hydro-3-pyridinecarboxylate] | 180 | –
CC(=O)C1=C(C)N(c2cccc(C(F)(F)F)c2)C(=N)C(C(=O)N(C)C)C1c1ccc(C#N)cc1 (stereo not shown) [Example 14, 5-Acetyl-4-(4-cyanophenyl)-2-imino-N,N,6-trimethyl-1-[3-(trifluoromethyl)phenyl]-1,2,3,4-tetrahydro-3-pyridinecarboxamide] | 20 | –
CCOC(=O)C1=C(N)N(c2cccc(CN(CC)CC)c2)C(C)=C(C(C)=O)C1c1ccc(C#N)cc1 (stereo not shown) [Example 17, Ethyl 5-acetyl-2-amino-4-(4-cyanophenyl)-1-{3-[(diethylamino)methyl]phenyl}-6-methyl-1,4-dihydro-3-pyridinecarboxylate] | 9000 | –
CCOC(=O)C1=C(N)N(c2cc(OC)cc(C(F)(F)F)c2)C(C)=C(C(C)=O)C1c1ccc(C#N)cc1 (stereo not shown) [Example 18, Ethyl 5-acetyl-2-amino-4-(4-cyanophenyl)-1-[3-methoxy-5-(trifluoromethyl)phenyl]-6-methyl-1,4-dihydro-3-pyridinecarboxylate] | 30 | –
COc1ccc(C(=O)N[C@H](C(=O)N2CCC[C@H]2C(=O)N[C@H](C(=O)C(F)(F)F)C(C)C)C(C)C)cc1 [ZD-0892, reference compound] | – | IC50 ([2]; n=2 different donors at 3.6×10^5 cells per well, read-out: IC50 (mean±s.e.m.) of elastolysis inhibition): 45.5 ± 7.75 nM
α1PI: α1 protease inhibitor, used as the positive inhibitor of neutrophil elastase | – | inhibition of 3H-elastin elastolysis (mean±s.e.m.) ([2]; at 1.2 μM, n=3 different donors at 3.6×10^5 cells per well, 4 hours at 37° C.): 83.46±3.97%
